Measured values taken from patent US20090313709A1, “Genetically Modified Animal and Use Thereof” (priority 2006, published 2009).

Columns and labels:
[1] = test system: isolated islets of Langerhans derived from control mice; assay: Insulin secretion from isolated islets of Langerhans of control mice with addition of palmitic acid; format: cell-based, mouse; details: 0.5 mM palmitic acid, 11 mM glucose, cultured 1 hour, insulin corrected by DNA amount
Description: (§1) Starting at 8 week-old, transgenic mice of the 47M strain and 23F strain were fed with a low-fat diet (D12450B, 10 kcal % fat, manufactured by Research Diets, Inc.) or a high-fat diet (D12492, 60 kcal % fat, manufactured by Research Diets, Inc.) for 8 weeks. Each mouse at 16 week-old had the duodenal side ligated, and the common bile duct cannulated, and a 1 mg/ml collagenase solution (manufactured by Wako Pure Chemical) was injected into the mouse pancreas. The pancreas receiving the injection was excised, placed in a tube containing the same collagenase solution, and shaken at 37° C. for 20 minutes. Subsequently, the solution was vigorously mixed for 30 seconds, and a Quenching buffer solution (Hanks Balanced Salt Solution comprising 0.001% DNaseI and 25 mM HEPES) containing 10% FBS was added to make a total volume of 20 ml. The solution was transferred to a Petri dish, and washed twice with the Quenching buffer solution, after which islets of Langerhans were recovered using a pipette under a microscopy, and this was used as the test sample. […] Meanwhile, after cultivation, islets of Langerhans were disrupted by sonication using a sonicator (manufactured by M & S Instruments Trading Inc.), the amount of DNA was determined using a Quant-iT™ Picogreen ds DNA Assay kit (manufactured by Molecular Probes), and the amount of insulin secreted was corrected.

[2] = test system: isolated islets of Langerhans derived from human GPR40 gene transgenic mice of the 47M strain; assay: Insulin secretion from isolated islets of Langerhans of human GPR40 gene transgenic mice (47M strain) with addition of palmitic acid; format: cell-based; details: transgenic mouse 47M strain islets; 0.5 mM palmitic acid, 11 mM glucose, cultured 1 hour; insulin corrected by DNA amount
Description: as §1

For CCCCCCCCCCCCCCCC(=O)O [palmitic acid], the “amount of insulin secreted, increase compared with the no-addition group” value [1] was “about 1.5 times” and the “amount of insulin secreted, increase compared with the no-addition group” value [2] was “about 6 times”.
